Measured values: patent publication US5780008A, “Polyhdric phenol compounds” (Mallinckrodt Medical, Inc., priority 1997, dated 1998)

Experiments:
YAK1 mice lymphoma cells = experiment: binding of 3-125I-phloretin to YAK1 lymphoma cancer cells
Experimental: (§1) In order to be able to compare the binding to cancer cells with the binding to normal cells, the following experiments are carried out. Binding to certain cancer cells, viz. YAK1 mice lymphoma cells (10^6 cells/ml incubation medium) is compared with binding to erythrocytes of a young healthy person (10^6 cells/ml incubation medium), because erythocytes are typical reference cells for glucose transport studies.
(§2) The incubation media are respectively:
(§3) RPMI buffer pH=8; 11 mM in glucose, and
(§4) RPMI buffer/0.9% NaCl : 1/1.
(§5) Each 1 ml essay contains 5% of foetal calf serum and is spiked (50 μl) with 3-^125 I-phloretin (initial activity is measured). After 15 min incubation at 37° C., the suspension is centrifuged and the precipitate is resuspended with 1 ml cold buffer which is discarded after a second centrifugation. The final radioactive precipitate is suspended in 1 ml water and measured. The bound radioactivity is related to the initial activity.

erythrocytes = experiment: binding of 3-125I-phloretin to erythrocytes; parameters: species or system human
Experimental: as §1, §2, §3, §4, §5
Saturation binding of 3-^125 I-phloretin to 5.10^6 erythrocytes is performed in RPMI-buffer and Tris-buffer of pH 8. The binding experiments are performed at pH 8, because this is the pH of the RPMI buffer needed for optimum YAK1 cells growth. Incubation for 15 min at 37° C. Inhibition is studied by pre-incubation (15 min, 37° C.) of the erythrocytes in buffer containing 2.10^-4 M 3-Br-phloretin. After centrifugation, the Br-phloretin--containing solution is discarded and the precipitate washed with ice-cooled buffer. After a second centrifugation, the supernatant is discarded and the cells are resuspended in buffer containing 3-^125 I-phloretin. After incubation for 15 min at 37° C., the same above procedure is applied.
Phloretin is a weak acid (pK is approx. 7.3); only the uncharged (non-dissociated) form inhibits red cell glucose transport (Jennings et al., see above). Therefore the values mentioned hereinafter are corrected for dissociation.

hexokinase = experiment: hexokinase-model: inhibition of hexokinase catalysed 6-phosphorilation of glucose; assay type: biochemical
Description: The "hexokinase-model" is used as a model system for the glucose-transport proteins, which play a paramount role in the glucose metabolism.

[1] = in vivo distribution studies in rats
Experimental: The in vivo distribution in rats is determined by injecting approx. 10μCi of the compound to be evaluated into the tail vein of the test animals. The test animals are sacrificed at appropriate time intervals after injection and the radioactivity of the organs of interest is measured by gamma scintillation counting.

[2] = binding in human whole blood (RB/plasma distribution, reversibility); assay type: in vitro ADME
Experimental: Jennings et al. [J. Gen. Phys., […], 67, 381]have reported the binding of phloretin to whole red blood cells. Their results let to assume that phloretin should enter the erythrocytes and bind to haemoglobine. This should mean that a phloretin-based radiotracer should not be suitable for in vivo use. Therefore the reversibility of the binding is checked. For this purpose 3-^125 I-phloretin is added to whole heparinised blood. This is centrifuged, yielding serum S-*I and red blood portion RB-*I. S-*I and non-radioactive RB (1/1) and respectively non-radioactive S and RB-*I (1/1) are incubated at 37° C. for 15 min and centrifuged. The radioactivity of all the weighed aliquots is measured in a well NaI(Tl) detector.

For `O=C(CCc1ccc(O)c(Br)c1)c1c(O)cc(O)cc1O` [3-Br-phloretin, 3-bromophloretin], the “decreased binding of 3-125I-phloretin to YAK1 cells” value (YAK1 mice lymphoma cells; co-incubation of 3-Br-phloretin, 15 min) was 30%, the “bound/free value of 3-125I-phloretin after pre-incubation with inhibitor” value (erythrocytes; pre-incubation with 2×10^-4 M, 15 min 37° C., blank 0.193, average of 5 experiments) was 0.081 and the “inhibition of 3-125I-phloretin binding to erythrocytes” value (erythrocytes; pre-incubation with 2×10^-4 M, compared with blank) was 58%.

With `O=C(CCc1ccc(O)c(I)c1)c1c(O)cc(O)cc1O` [3-I-phloretin] the “inhibition potency for hexokinase relative to the original phloretin” value (hexokinase; versus phloretin) was “approx. 2 times”.

With `O=C(CCc1ccc(O)c([125I])c1)c1c(O)cc(O)cc1O` [3-^125 I-phloretin] the “increase of uptake to YAK1 lymphoma cancer cells as compared to erythrocytes” value (YAK1 mice lymphoma cells; YAK1 cells versus erythrocytes) was > 2 factor, the “uptake in the heart and muscle in the presence of Br-phloretin (C.A.)” value ([1]; C.A. versus N.C.A.) was “decreased uptake” and the “uptake in the lungs (lung versus blood)” value ([1]; approx. 10μCi into the tail vein) was “high uptake”. The “high affinity binding in the presence of serum albumine” value (erythrocytes; at equilibrium) was “remains unchanged”, the “influence of glucose on binding” value (erythrocytes; presence of 3.10^-3 -5.10^-3 M glucose) was “hardly influences” and the Bmax (erythrocytes; saturation binding 0.1 to 1.2 10^-10 M, Scatchard plot, pH 8) was 4.7×10^-15 mol/10^6 erythrocytes. For the same compound, the “nature of binding to plasma-proteins and RB” value [2] was “bound reversibly”.

For `O=C(CCc1ccc(O)cc1)c1c(O)cc(O)cc1O` [phloretin, reference compound], the “type of inhibition of hexokinase activity” value (hexokinase; from Lineweaver-Burck plots, with respect to glucose) was “competitive”.
